# Values quoted from earlier work in PMC7693160 (Pharmaceutics, 2020).
# Tests used:
# Set-up in all cases: method as in Kumar et al. 43
# Conditions in all cases: ref Kumar et al. 43, read-out: Perpetrator in vitro Ki; cited from earlier work
# [1] = system: CYP2C9 1*/3*
# [2] = system: CYP2C9 3*/3*
# [3] = system: CYP2C9 1*/1*
smiles,measurement,setting,value
"OC(Cn1cncn1)(Cn1cncn1)c1ccc(F)cc1F [Fluconazole, fluconazole]",Ki,[1],17 µM
same,Ki,[2],23 µM
same,Ki,[3],11 µM
